{"source": "paper PMC9804084", "about": "“Multiple drug transporters contribute to the brain transfer of levofloxacin” (CNS Neuroscience & Therapeutics, 2022)", "key": {"[1]": {"tested_on": "Organic anion transporters (OATs)", "experiment": "In vivo microdialysis pharmacokinetics of LVFX with OATs inhibitor probenecid", "parameters": "species or system rat", "conditions": "for MRT / half-life / Tmax / AUC(0-inf) / Cmax / AUC(0-t) / Kp: rat, intravenous, with Probenecid 50 mg/kg i.p., PRO group, Probenecid 50 mg/kg i.p. + LVFX 50 mg/kg, N=5; for MRT / half-life / AUC(0-inf) / Cmax / AUC(0-t): mean ± SD; for AUC(0-t): read-out: AUC0–180 (converted)", "protocol": "(§1) On the day of surgery, rats were anesthetized using inhaled isoflurane via a facemask. The rats were placed in a stereotaxic frame (Gene&I), and the body temperature was maintained with a homoeothermic blanket set at 37°C. A midline incision was made to expose the skull. According to the Paxinos and Watson atlas, two microdialysis intracerebral guide cannulae (Eicom Co.) were implanted into the hippocampus CA1 region (Hp‐CA1 coordinates: AP −4.16 mm; ML −2.2 mm; DV −2.9 mm) and lateral ventricle (LV coordinates: AP −1.4 mm; ML +2.2 mm; DV −3.4 mm). Fixed to the skull using a screw and dental cement. After 3 days of recovery, the rats were anesthetized with isoflurane again. An intravascular probe (TP‐100‐20; 20 mm, Eicom Co.) was implanted into the jugular vein toward the right atrium. After the blood microdialysis probe was positioned within the jugular vein, the pipeline was connected to perfuse with ACD solution (citric acid 3.5 mM; sodium citrate 7.5 mM; dextrose 13.6 mM) at a flow rate of […], and the Hamilton microinjection pump was used for continuous perfusion. After stopping isoflurane inhalation, the rats were allowed to wake up naturally on the homoeothermic blanket. The awake rats were placed in a device that allowed them to move freely. Animals were allowed to recover for an additional 24 h.\n(§2) All microdialysate concentrations (C m) from the hippocampal ECF and lateral ventricle CSF were converted to the unbound drug concentration (C u) at the target site using the following formula: C u = C m/R dial.\n(§3) A total of 32 rats were randomly divided into the following groups: • Control group, N = 12: vehicle solution + LVFX (50 mg/kg). • TAR group, N = 5: Tariquidar (8 mg/kg) + LVFX (50 mg/kg). • Ko143 group, N = 5: Ko143 (15 mg/kg) + LVFX (50 mg/kg). • MK571 group, N = 5: MK571 (20 mg/kg) + LVFX (50 mg/kg). • PRO group, N = 5: Probenecid (50 mg/kg) + LVFX (50 mg/kg).\n(§4) Levofloxacin was freshly dissolved in isotonic saline and administered via tail vein injection. Thirty minutes before LVFX administration, the intervention drugs of each group were injected intraperitoneally. To reduce the possible effect of solvents on BBB or BCSFB permeability of LVFX, we prioritized water as the solvent. However, Tariquidar and Ko143 are insoluble in water, and a cosolvent must be used to prepare agents that animals can tolerate. According to the different physicochemical properties of these four inhibitors, the preparation of each transporter inhibitor solution in this experiment was as follows. • P‐glycoprotein (P‐gp) inhibitor Tariquidar[22]: Tariquidar was freshly dissolved in DMSO to 8 mg/ml and then diluted to 4 mg/ml with a solution containing 10% Tween‐80, 25% PEG300, and 65% sterile water. • Breast cancer resistance protein (BCRP) inhibitor Ko143[23]: Ko143 was freshly dissolved in DMSO to 15 mg/ml and then diluted to 7.5 mg/ml with a solution containing 10% Tween‐80, 25% PEG300, and 65% sterile water. • Multidrug resistance‐associated proteins (MRPs) inhibitor MK571[24]: MK571 sodium salt hydrate was dissolved in 1.25% (w/v) aq sodium hydrogen carbonate (NaHCO3) solution to obtain a concentration of 10 mg/ml. • Organic anion transporters (OATs) inhibitor probenecid[25]: Probenecid was dissolved in NaOH (pH = 9.0–9.2) alkalized physiological saline to obtain a concentration of 25 mg/ml.\n(§5) The pipelines where the blood and brain probes were installed were perfused at the speed of 2 μl/min with ACD solution and ACSF, respectively. Two brain probes were inserted into guide cannulas of the target site and allowed to equilibrate for 1 h. Subsequently, the rats were treated according to their corresponding groups in the device where they could move freely. Microdialyses samples were collected every 15 min using a fraction collector (EFC‐96, Eicom Co.) for 3 h and stored at 4°C until analysis. Finally, rats were anesthetized and decapitated, and their brain was harvested."}, "[2]": {"tested_on": "T1, Breast cancer resistance protein (BCRP)", "T1 construct": "from tissue; host or cells: living rat (blood-brain barrier, choroid plexus)", "experiment": "In vivo microdialysis pharmacokinetics of LVFX with BCRP inhibitor Ko143", "conditions": "rat, intravenous, with Ko143 15 mg/kg i.p., 30 min before LVFX, Ko143 group, Ko143 15 mg/kg i.p. + LVFX 50 mg/kg, N=5", "protocol": "as §1, §2, §3, §4, §5"}, "[3]": {"conditions": "blood, PRO group (probenecid 50 mg/kg) vs control group"}, "[4]": {"conditions": "CSF (lateral ventricle microdialysate, unbound), 30 min before LVFX, CSF"}, "[5]": {"conditions": "CSF (lateral ventricle microdialysate, unbound), CSF"}, "[6]": {"conditions": "brain ECF (hippocampal microdialysate, unbound), 30 min before LVFX, brain ECF"}}, "note": "Like-named read-outs stand apart in the source and are kept apart here."}
{"smiles": "C[C@H]1COc2c(N3CCN(C)CC3)c(F)cc3c(=O)c(C(=O)O)cn1c23", "note": "[LVFX, Levofloxacin]", "values": [{"measurement": "AUC0–180 higher than control group", "setting": "[1]; [3]", "result": 128.6, "unit": "%"}, {"measurement": "AUC0–∞ higher than control group", "setting": "[1]; [3]", "result": 143.0, "unit": "%"}, {"measurement": "C max greater than control group", "setting": "[1]; [3]", "result": 71.2, "unit": "%"}, {"measurement": "MRT longer than control group", "setting": "[1]; [3]", "result": 1.29, "unit": "times"}, {"measurement": "t 1/2 longer than control group", "setting": "[1]; [3]", "result": 1.28, "unit": "times"}, {"measurement": "MRT", "setting": "[1]; [4]", "result": 1.47, "unit": "h"}, {"measurement": "half-life", "setting": "[1]; [4]", "result": "0.959 ± 0.126", "unit": "h"}, {"measurement": "Tmax", "setting": "[1]; [5]", "result": 0.25, "unit": "h"}, {"measurement": "AUC(0-inf)", "setting": "[1]; [5]", "result": 9510, "unit": "ng·h/mL"}, {"measurement": "Cmax", "setting": "[1]; [5]", "result": "6800 ± 240", "unit": "ng/mL"}, {"measurement": "AUC(0-t)", "setting": "[1]; [5]", "result": 8330, "unit": "ng·h/mL"}, {"measurement": "Kp", "setting": "[1]; CSF / blood (unbound, microdialysate), 30 min before LVFX, AUCu,CSF/AUCu,blood, read-out: K p,uu,CSF", "result": "0.359 ± 0.008"}, {"measurement": "Tmax", "setting": "[1]; [6]", "result": 0.25, "unit": "h"}, {"measurement": "AUC(0-inf)", "setting": "[1]; [6]", "result": 9220, "unit": "ng·h/mL"}, {"measurement": "Cmax", "setting": "[1]; [6]", "result": "5850 ± 180", "unit": "ng/mL"}, {"measurement": "half-life", "setting": "[1]; [6]", "result": "1.12 ± 0.28", "unit": "h"}, {"measurement": "AUC(0-t)", "setting": "[1]; [6]", "result": 7830, "unit": "ng·h/mL"}, {"measurement": "Kp", "setting": "[1]; brain ECF / blood, 30 min before LVFX, AUCu,ECF/AUCu,blood, read-out: K p,uu,ECF", "result": "0.337 ± 0.012"}, {"measurement": "Tmax", "setting": "[1]; 30 min before LVFX, blood", "result": 0.25, "unit": "h"}, {"measurement": "AUC(0-inf)", "setting": "[1]; 30 min before LVFX, blood", "result": 27000, "unit": "ng·h/mL"}, {"measurement": "Cmax", "setting": "[1]; 30 min before LVFX, blood", "result": "17500 ± 600", "unit": "ng/mL"}, {"measurement": "MRT", "setting": "[1]; 30 min before LVFX, blood", "result": 1.58, "unit": "h"}, {"measurement": "half-life", "setting": "[1]; 30 min before LVFX, blood", "result": "1.05 ± 0.16", "unit": "h"}, {"measurement": "AUC(0-t)", "setting": "[1]; 30 min before LVFX, blood", "result": 23200, "unit": "ng·h/mL"}, {"measurement": "MRT", "setting": "[1]; 30 min before LVFX, brain ECF", "result": 1.61, "unit": "h"}, {"measurement": "Kp", "setting": "[2]; CSF / blood (unbound, microdialysate), AUCu,CSF/AUCu,blood, read-out: K p,uu,CSF", "result": "0.424 ± 0.035"}, {"measurement": "Kp", "setting": "[2]; brain ECF / blood, AUCu,ECF/AUCu,blood, read-out: K p,uu,ECF", "result": "0.389 ± 0.024"}]}
